The values that follow come from US6342319B1, “Nonaqueous electrolyte secondary battery and method of manufacturing negative electrode” (Kabushiki Kaisha Toshiba, priority 1997, dated 2002).

The pKa is the negative logarithm of the acid dissociation constant. Higher therefore signals a group that holds its proton tightly.

One series is described as follows: physchem.
`O=C(O)c1ccccc1C(=O)O` [benzene-1,2-dicarboxylic acid] had a pKa of 3.5 to 4.5.

Take `O=C(O)c1ccc(C(=O)O)cc1` [benzene-1,4-dicarboxylic acid]: the pKa lay in the range of 3.5 to 4.5.

A further series in a line: Acid dissociation constant pKa of the aromatic compound used as precursor material.
In the case of `O=C(O)c1cc(C(=O)O)c(C(=O)O)cc1C(=O)O` [benzene-1,2,4,5-tetracarboxylic acid], the pKa fell in the range of 3.5 to 4.5.

For `O=C(O)c1ccc(C(=O)O)c(C(=O)O)c1` [benzene-1,2,4-tricarboxylic acid], the pKa was 3.5 to 4.5.

For `O=C(O)c1cccc(C(=O)O)c1` [benzene-1,3-dicarboxylic acid], the pKa was 3.5 to 4.5.

On to `O=C(O)c1ccc(C(=O)O)c2c(C(=O)O)ccc(C(=O)O)c12` [naphthalene-1,4,5,8-tetracarboxylic acid], for which the pKa is 3.5 to 4.5.

Compound `O=C(O)c1ccc(C(=O)O)c2ccccc12` [naphthalene-1,4-dicarboxylic acid] had a pKa of 3.5 to 4.5.

With `O=C(O)c1cccc2cccc(C(=O)O)c12` [naphthalene-1,8-dicarboxylic acid], the pKa was 3.5 to 4.5.

For the compound `O=C(O)c1cccc2ccccc12` [naphthalene-1-carboxylic acid], the pKa was 4.2.

On to `O=C(O)c1ccc2c3ccc(C(=O)O)c4c(C(=O)O)ccc(c5ccc(C(=O)O)c1c25)c43` [perylene-3,4,9,10-tetracarboxylic acid], for which the pKa was 3.5 to 4.5.
